“Also recorded” adds a separate entry of the source.
What was measured:
[1] = target: T1, PDK1 (phosphoinositide-dependent kinase 1) (Homo sapiens, UniProt O15530); test: PDK1 phosphorylation (pPDK1) by flow cytometry in SU-DHL-8 cells; assay type: cell-based; details: SU-DHL-8, 24 hours, vs control group, FIG. 3
T1 construct: endogenous in cells; host or cells: SU-DHL-8 (ATCC CRL-2961)
T1 sequence (O15530 1-556): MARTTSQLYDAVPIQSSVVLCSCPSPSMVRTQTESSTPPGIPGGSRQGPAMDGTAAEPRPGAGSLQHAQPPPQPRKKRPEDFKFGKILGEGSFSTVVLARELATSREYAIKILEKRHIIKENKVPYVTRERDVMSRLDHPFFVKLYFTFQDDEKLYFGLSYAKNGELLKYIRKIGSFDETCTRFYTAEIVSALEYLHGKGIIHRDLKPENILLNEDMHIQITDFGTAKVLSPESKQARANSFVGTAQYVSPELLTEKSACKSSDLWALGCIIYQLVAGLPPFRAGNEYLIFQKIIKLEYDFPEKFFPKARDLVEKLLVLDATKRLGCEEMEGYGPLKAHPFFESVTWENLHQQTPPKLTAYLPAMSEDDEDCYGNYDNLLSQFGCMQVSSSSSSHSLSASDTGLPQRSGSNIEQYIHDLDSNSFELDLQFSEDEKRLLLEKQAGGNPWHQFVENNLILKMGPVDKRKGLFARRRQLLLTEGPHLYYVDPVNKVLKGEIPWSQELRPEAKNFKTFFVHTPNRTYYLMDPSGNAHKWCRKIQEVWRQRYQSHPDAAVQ
Experimental: After stabilizing the cells, the compound of the present invention was added, and the cells were cultured for 24 hours.
After drug treatment, the cells were harvested, and the Fc receptor blocking process was performed. The cells were then fixed and permeabilized using the Intracellular Staining Kit (Cat. No. BD554715) from BD Biosciences. Subsequently, the intracellular pPDK1 was stained using the pPDK1-PE fluorescently labeled antibody (BD Biosciences).
Referring to the figure, the vertical axis represents the phosphorylation level of PDK1 (phospho-PDK1 expression level), and the horizontal axis denotes the concentration-dependent treatment conditions of each compound.

[2] = system: T cells isolated from mouse spleens; test: T cell proliferation inhibition (CFSE flow cytometry, anti-CD3/anti-CD28 stimulation); assay type: cell-based; details: mouse spleen T cells, 3 days; for inhibition at 0.01 µM / inhibition at 0.1 µM / inhibition at 1 µM / inhibition at 10 µM / inhibition at 30 µM / inhibition at 50 µM: Mus musculus, T-cell, 72 h, read-out: Proliferation inhibition rate (%)
In short: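 Proliferation inhibition (%) came from flow cytometry of CFSE dilution after 3 days' culture at 37 °C with compound (10 nM, 100 nM, 1, 10, 30, 50 μM; triplicate wells). Cells were magnetically purified T cells from C57BL/6 mouse spleens, 2×10^5 per well, stimulated with 0.5 μg/mL each anti-CD3 and anti-CD28.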

[3] = system: Human Osteosarcoma, Saos-2; test: Relative cell viability CCK-8, Saos-2; assay type: cell-based; details: for Relative cell viability (%), Saos-2: 48 hours
Experimental: Human-derived head and neck cancer cell line Fadu and osteosarcoma cell line Saos-2 were cultured in MEM medium containing 10% FBS, 100 U/mL penicillin, and 100 μg/mL streptomycin.
(§1) Following stabilization, the cells were harvested using Trypsin-EDTA treatment, centrifuged at 1,200 rpm for 3 minutes, the supernatant was removed, and the cells were resuspended in the same medium. They were then seeded into a 96-well plate (Costar 96-well cell culture plate, Corning) at 100 μL per well, and the conditions were adjusted as indicated in Table 5.
(§2) The cells were cultured in a 5% CO2 incubator at 37° C. for 24 hours, and after stabilization of the cells, each plate was washed with 200 μL of PBS per well and treated with 50 μL of culture medium per well.
(§3) After that, 10 μL of CCK-8 was added to each well, and the plate was incubated again at 37° C. in a 5% CO2 incubator for 2 hours.
(§4) In other words, when the survival rate of untreated cells (DMSO) is set at 100%, the relative cell survival rate in each group treated with the drug at different concentrations is indicated.

[4] = system: Human Bladder cancer cell, T24; test: Relative cell viability CCK-8, T24; assay type: cell-based; details: for Relative cell viability (%), T24: 48 hours
Experimental: Human-derived breast cancer cell line MCF-7, human-derived lung cancer cell line A549, human-derived colorectal cancer cell line HCT-116, human pancreatic cancer cell line AsPC-1, glioblastoma cell line A172, and melanoma cell line Malme-3M were obtained from the Korean Cell Bank. gastric cancer cell line SNU-719, and bladder cancer cell line T24 were cultured in RPMI-1640 medium containing 10% FBS.
as §1, §2, §3, §4

PDK1 = target: T2, PDK1 (Homo sapiens, UniProt O15530); test: PDK1 kinase activity inhibition, IC50 (in vitro kinase assay, luminescence); assay type: biochemical; details: FIG. 4; read-out: IC50 for inhibiting PDK1 kinase activity
T2 construct: purchased Promega V9681
T2 sequence (O15530 1-556): T1 sequence (O15530 1-556)
Experimental: As shown in the table below, this invention establishes an in vitro kinase assay system to quantitatively evaluate PDK1 kinase activity inhibition, and utilizes this system to compare and analyze the activity of new PDK1 inhibitor candidate compounds.
Specifically, after reacting ATP (100 μM), substrate (PDKtide, 0.5 μg/μL), and PDK1 enzyme (30 ng) at a specific concentration, the difference in ATP consumption between the group treated with each candidate compound and the DMSO control group was measured using luciferase-based luminescence signals (RLU).
Additionally, enzyme kinetics analysis was performed to quantitatively analyze the effect of the compounds of the present invention on the enzymatic activity of PDK1 (3-Phosphoinositide-dependent protein kinase-1) and to confirm the inhibition pattern.
Prior to the analysis, the half-maximal inhibitory concentration (IC50) values of the compounds GO15F, GO86, and GO88 of the present invention for inhibiting PDK1 kinase activity were determined, and the results are shown in FIG. 4.

Nc1ncccc1C(=O)NCCCCCCCCCCCCN1CCOCC1 [Compound 2, 2-Amino-N-(12-morpholin-4-yl-dodecyl)-nicotinamide]
Inhibition of PDK1 phosphorylation (phospho-PDK1 expression level) ([1]; listed as GO48): stronger PDK1 inhibition; also recorded: high inhibitory effects even at low concentrations | inhibition at 0.01 µM ([2]; compound 10 nM): -1.47% | inhibition at 0.1 µM ([2]; compound 100 nM): 0% | inhibition at 1 µM ([2]; compound 1 μM): 0% | inhibition at 10 µM ([2]; compound 10 μM): 100% | inhibition at 30 µM ([2]; compound 30 μM): 100% | inhibition at 50 µM ([2]; compound 50 μM): 100%

Nc1ncccc1C(=O)NCCCCCCCCCCCCN1CCNCC1 [Compound 5, 2-Amino-N-(12-(piperazin-1-yl)dodecyl)-nicotinamide]
Relative cell viability (%), Saos-2 ([3]; 1 μM, listed as GO78, 1 µM): 28.36% | Relative cell viability (%), Saos-2 ([3]; 10 μM, listed as GO78, 10 µM): 33.69% | Relative cell viability (%), Saos-2 ([3]; 30 μM, listed as GO78, 30 µM): 19.77% | Relative cell viability (%), Saos-2 ([3]; 50 μM, listed as GO78, 50 µM): 2.60% | inhibition at 0.1 µM ([2]; compound 100 nM): 100% | inhibition at 1 µM ([2]; compound 1 μM): 100% | inhibition at 10 µM ([2]; compound 10 μM): 100% | inhibition at 30 µM ([2]; compound 30 μM): 100% | inhibition at 50 µM ([2]; compound 50 μM): 100% | Proliferation inhibition rate (%) ([2]; compound 10 nM, listed as GO78, 0.01 µM): −27.49% | Relative cell viability (%), T24 ([4]; 1 μM, listed as GO78, 1 µM): 28.34% | Relative cell viability (%), T24 ([4]; 10 μM, listed as GO78, 10 µM): 30.42% | Relative cell viability (%), T24 ([4]; 30 μM, listed as GO78, 30 µM): 29.73% | Relative cell viability (%), T24 ([4]; 50 μM, listed as GO78, 50 µM): 29.32%

CC1(C)CN(CCCCCCCCCCCCC(=O)Nc2nc(N)c3[nH]cnc3n2)CCO1 [Compound 11, 12-[4-(2,2-dimethylmorpholin-4-yl)]dodecyl-N-(6-aminopurine-2-yl) carboxamide]
Inhibition of PDK1 phosphorylation (phospho-PDK1 expression level) ([1]; listed as GO86): stronger PDK1 inhibition; also recorded: high inhibitory effects even at low concentrations | Relative cell viability (%), Saos-2 ([3]; 1 μM): 36.73% | Relative cell viability (%), Saos-2 ([3]; 10 μM): 24.98% | Relative cell viability (%), Saos-2 ([3]; 30 μM): 16.00% | Relative cell viability (%), Saos-2 ([3]; 50 μM): 36.73% | Proliferation inhibition rate (%) ([2]; compound 10 nM): −25.47% | Proliferation inhibition rate (%) ([2]; compound 100 nM): 100.00% | Proliferation inhibition rate (%) ([2]; compound 1 μM): 100.00% | Proliferation inhibition rate (%) ([2]; compound 10 μM): 100.00% | Proliferation inhibition rate (%) ([2]; compound 30 μM): 100.00% | Proliferation inhibition rate (%) ([2]; compound 50 μM): 100.00% | Relative cell viability (%), T24 ([4]; 1 μM): 28.15% | Relative cell viability (%), T24 ([4]; 10 μM): 31.17% | Relative cell viability (%), T24 ([4]; 30 μM): 30.42% | Relative cell viability (%), T24 ([4]; 50 μM): 29.34% | IC50 (PDK1): 11.3 nM

Nc1ncccc1C(=O)NCCCCCCCCCCCCN1CCNCC1 [Compound 14, 2-Amino-N-(12-(piperazin-1-yl)dodecyl)nicotinamide]
Inhibition of PDK1 phosphorylation (phospho-PDK1 expression level) ([1]; listed as GO88): stronger PDK1 inhibition; also recorded: high inhibitory effects even at low concentrations | Relative cell viability (%), Saos-2 ([3]; 50 μM, listed as GO88, 50 µM): 0.00% | viability at 1 µM ([3]; Homo sapiens, SAOS-2, 48 h, 1 μM): 47.1% | viability at 10 µM ([3]; Homo sapiens, SAOS-2, 48 h, 10 μM): 34.2% | viability at 30 µM ([3]; Homo sapiens, SAOS-2, 48 h, 30 μM): 16.3% | Proliferation inhibition rate (%) ([2]; compound 10 nM, listed as GO88, 0.01 µM): 17.83% | Proliferation inhibition rate (%) ([2]; compound 10 μM, listed as GO88, 10 µM): 85.09% | Proliferation inhibition rate (%) ([2]; compound 30 μM, listed as GO88, 30 µM): 98.95% | Relative cell viability (%), T24 ([4]; 1 μM, listed as GO88, 1 µM): 9.88% | Relative cell viability (%), T24 ([4]; 10 μM, listed as GO88, 10 µM): 11.01% | Relative cell viability (%), T24 ([4]; 30 μM, listed as GO88, 30 µM): 9.22% | Relative cell viability (%), T24 ([4]; 50 μM, listed as GO88, 50 µM): 7.47% | IC50 (PDK1): 13 nM

Nc1nc(NC(=O)CCCCCCCCCCCCN2CCN(CCO)CC2)nc2nc[nH]c12 [Compound 15, 12-[4-(2-hydroxyethyl)piperazin-1-yl]dodecyl-N-(6-aminopurine-2-yl) carboxamide]
inhibition at 0.01 µM ([2]; compound 10 nM): -0.4% | inhibition at 0.1 µM ([2]; compound 100 nM): 100% | inhibition at 1 µM ([2]; compound 1 μM): 100% | inhibition at 10 µM ([2]; compound 10 μM): 100% | inhibition at 30 µM ([2]; compound 30 μM): 100% | inhibition at 50 µM ([2]; compound 50 μM): 100% | viability at 1 µM ([4]; Homo sapiens, 48 h, 1 μM): 7.92% | viability at 10 µM ([4]; Homo sapiens, 48 h, 10 μM): 9.29% | viability at 30 µM ([4]; Homo sapiens, 48 h, 30 μM): 9.57% | viability at 50 µM ([4]; Homo sapiens, 48 h, 50 μM): 8.75%

Nc1ncccc1C(=O)NCCCCCCCCCCCCF [Compound 57, 2-Amino-N-(12-fluoro-dodecyl)-nicotinamide]
Inhibition of PDK1 phosphorylation (phospho-PDK1 expression level) [1]: exhibited an inhibitory effect on PDK1 phosphorylation | inhibition at 30 µM ([2]; compound 30 μM): 100% | inhibition at 50 µM ([2]; compound 50 μM): 100% | Proliferation inhibition rate (%) ([2]; compound 10 nM): −9.32% | Proliferation inhibition rate (%) ([2]; compound 100 nM): −5.28% | Proliferation inhibition rate (%) ([2]; compound 1 μM): 16.20% | IC50 (PDK1): 380 nM
